The text below walks through data of patent US11499978B2, “Method for measuring quality of therapeutic cell through real-time glutathione measurement” (CELL2IN, INC., priority 2017, dated 2022).

The subject of one assay is hUC-MSCs. Kind of assay: FreSH-Tracer-based glutathione regeneration capacity (GRC) in hUC-MSCs. Details: species or system human. The following applies: hUC-MSCs subcultured three times with AA2G 250 μg/mL; low concentration of diamide; compared with naive cell group. The procedure:
GRC refers to a value obtained by real-time monitoring of FR after living cells are treated with an oxidizing agent, as calculated by dividing a value obtained by subtracting AUC of a group treated with 0.1-100 mM N-ethylmaleimide (NEM) from FR AUC of an oxidizing agent (diamide, H2O2, etc.)-treated group by a value obtained by subtracting the AUC of NEM-treated group from AUC of the untreated control, and multiplying the resulting value by 100. The FR of the NEM-treated group is a value for increasing the sensitivity of a GRC value by treating it as the blank value of the FR of the cells of interest. […] To remove the MitoFreSH-Tracer from the medium before measurement, the medium was exchanged with fresh 10 mM HEPES-containing HBSS(Hanks' Balanced Salt Solution), and a fluorescence image was obtained using a confocal imaging system, Operetta. By comparing GSH levels quantified from control cells not treated with RSL3 or control cells before treated with RSL3, the distribution of GSH expression-changed cells was calculated. Based on the point where the distribution histogram is divided into two peaks, the cells were divided into GSH^High cells (right peak) and GSH^Low cells (left peak), and then a ratio of corresponding cells was expressed as a percentage (%). […]

A further assay relates to T cells. In words: Anti-inflammatory effect of treated hUC-MSCs on T cells. The class given is cell-based. To be noted: hUC-MSCs treated with 125 or 250 μg/mL AA2G for three days. How it is done: The inventors observed an effect of the material on stem cells by treating each stem cells with a material for enhancing a glutathione evaluation parameter. When hUC-MSCs were subcultured in a L-AA2G-containing medium, CFU-F, migration capacity, and an anti-inflammatory effect were observed. A CFU-F assay (n=3) was performed by treating hUC-MSCs with 125 or 250 μg/mL of AA2G for three days. As shown in FIGS. 16A and 16B, it was confirmed that, when AA2G was treated, CFU-F increased. In addition, as hUC-MSCs were treated with 125 or 250 μg/mL of AA2G for three days, PDGF-AA-induced migration capacity (n=3) was analyzed. As shown in FIGS. 17A and 17B, it was confirmed that the migration capacity was increased by AA2G treatment. In addition, the reduction in T cell proliferation, the reduction in T cell differentiation, and the promotion of Treg cell differentiation were observed by treating hUC-MSCs with 125 or 250 μg/mL of AA2G for three days.
In addition, hUC-MSCs were cultured with ferrostatin-1 (0.2, 1, 2 and 4 μM) and liproxstatin-1 (0.1, 0.5, 1 and 2 μM), which control a glutathione level in cells by inhibiting lipid oxidation. […] Meanwhile, the hUC-MSCs were treated with 1 μM ferrostatin-1 for 24 hours, 0.2 mM GGC for 2 hours, and 2 mM GSH-EE for 2 hours. As a result, the reduction in T cell proliferation ability and the reduction in T cell differentiation capacity were observed, and promotion of Treg cell differentiation was observed.

Each structure is given as a SMILES string.

For `O=C1O[C@H]([C@@H](O)CO)C(O)=C1O[C@H]1O[C@H](CO)[C@@H](O)[C@H](O)[C@H]1O` [AA2G, ascorbic acid 2-glucoside], the “FreSH-Tracer-based GRC” value in the assay on hUC-MSCs is given as “increased”. For the same compound, in the assay on T cells, the T cell differentiation entry is listed as “reduction”, the T cell proliferation result is reported as “reduction”, the Treg cell differentiation entry is “promotion” and the “anti-inflammatory effect of stem cells” value is listed as “exhibited”.
